According to US20110130380A1, “Heteroaryl Kinase Inhibitors” (priority 2009, published 2011):

target: Cdk9/cyclinT1 (Homo sapiens, UniProt P50750); assay: Cdk9/cyclinT1 IMAP Protocol (fluorescence polarization kinase assay); conditions: Cdk9_cyclinT1_IC50, Table V; generated using one of the two Cdk9/cyclinT1 assays (IMAP or Alpha Screen), not stated which; ATP 6 uM
Sequence (P50750 whole entry): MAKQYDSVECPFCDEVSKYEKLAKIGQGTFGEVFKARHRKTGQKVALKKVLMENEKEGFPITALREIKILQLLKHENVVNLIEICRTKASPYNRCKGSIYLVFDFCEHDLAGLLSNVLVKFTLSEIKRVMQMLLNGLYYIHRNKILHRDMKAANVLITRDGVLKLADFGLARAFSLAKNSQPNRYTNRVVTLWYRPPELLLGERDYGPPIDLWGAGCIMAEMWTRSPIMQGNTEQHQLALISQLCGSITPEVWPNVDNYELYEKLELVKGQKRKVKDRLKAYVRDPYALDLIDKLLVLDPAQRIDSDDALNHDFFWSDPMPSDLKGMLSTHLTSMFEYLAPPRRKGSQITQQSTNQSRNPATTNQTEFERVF
Sequence (O60563 whole entry partner): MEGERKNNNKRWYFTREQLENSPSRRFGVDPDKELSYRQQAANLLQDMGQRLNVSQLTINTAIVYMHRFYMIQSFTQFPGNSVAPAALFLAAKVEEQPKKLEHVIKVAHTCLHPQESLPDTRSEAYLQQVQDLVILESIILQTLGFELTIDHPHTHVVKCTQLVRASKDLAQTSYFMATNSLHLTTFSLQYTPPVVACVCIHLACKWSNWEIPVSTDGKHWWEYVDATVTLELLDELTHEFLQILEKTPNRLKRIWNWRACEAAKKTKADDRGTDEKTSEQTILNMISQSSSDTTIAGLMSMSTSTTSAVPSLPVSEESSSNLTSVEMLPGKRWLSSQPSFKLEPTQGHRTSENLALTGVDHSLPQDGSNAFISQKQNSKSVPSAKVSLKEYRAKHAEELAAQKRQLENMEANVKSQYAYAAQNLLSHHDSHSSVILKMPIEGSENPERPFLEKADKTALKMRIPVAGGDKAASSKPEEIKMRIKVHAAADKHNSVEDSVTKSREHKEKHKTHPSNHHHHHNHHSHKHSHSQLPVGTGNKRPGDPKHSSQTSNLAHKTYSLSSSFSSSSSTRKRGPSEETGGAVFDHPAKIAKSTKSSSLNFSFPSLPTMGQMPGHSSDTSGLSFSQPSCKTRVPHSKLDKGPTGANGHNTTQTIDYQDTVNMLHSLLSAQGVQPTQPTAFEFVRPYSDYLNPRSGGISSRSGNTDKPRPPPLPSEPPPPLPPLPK

| IC50 | SMILES |
| --- | --- |
| 13 nM | O=C(Nc1cc(-c2cccc(NCC3CCOCC3)n2)c(Cl)cn1)[C@H]1CCNC1 [Example 73, (S)-Pyrrolidine-3-carboxylic acid {5′-chloro-6-[(tetrahydro-pyran-4-ylmethyl)-amino]-[2,4′]bipyridinyl-2′-yl}-amide] |
| < 8 nM | CC1(C)CC(CNc2ccc(Cl)c(-c3cc(NC(=O)[C@H]4CNCCO4)ncc3Cl)n2)CCO1 (stereo partly drawn) [Example 133, (R)-Morpholine-2-carboxylic acid {3,5′-dichloro-6-[(2,2-dimethyl-tetrahydro-pyran-4-ylmethyl)-amino]-[2,4′]bipyridinyl-2′-yl}-amide] |
| 13 nM | C[C@H](Nc1cccc(-c2cc(NC(=O)[C@@H]3CCCNC3)ncc2Cl)n1)C1CCOCC1 [Example 136, (R)-Piperidine-3-carboxylic acid {5′-chloro-6-[(S)-1-(tetrahydro-pyran-4-yl)-ethylamino]-[2,4′]bipyridinyl-2′-yl}-amide] |
| < 8 nM | CCS(=O)(=O)N1CCC[C@H](C(=O)Nc2cc(-c3nc(NCC4CCOCC4)ccc3Cl)c(Cl)cn2)C1 [Example 111, (S)-1-Ethanesulfonyl-piperidine-3-carboxylic acid {3,5′-dichloro-6-[(tetrahydro-pyran-4-ylmethyl)-amino]-[2,4′]bipyridinyl-2′-yl}-amide] |
| < 8 nM | O=C(Nc1cc(-c2cccc(NCC3CCOCC3)n2)c(Cl)cn1)[C@H]1CNC[C@@H](C(F)(F)F)C1 (racemic) [Example 148, (3R,5S)-/(3S,5R)-5-Trifluoromethyl-piperidine-3-carboxylic acid {5′-chloro-6-[(tetrahydro-pyran-4-ylmethyl)-amino]-[2,4′]bipyridinyl-2′-yl}-amide] |
| 9 nM | CN1CC(C(=O)Nc2cc(-c3cccc(NCC4CCOCC4)n3)c(Cl)cn2)CC1=O (centres unmarked) [Example 60, 1-Methyl-5-oxo-pyrrolidine-3-carboxylic acid {5′-chloro-6-[(tetrahydro-pyran-4-ylmethyl)-amino]-[2,4′]bipyridinyl-2′-yl}-amide] |
| 10 nM | O=C(Nc1cc(-c2cccc(NCC3CCCCO3)n2)c(Cl)cn1)[C@@H]1CCCNC1 (stereo partly drawn) [Example 34, (R)-Piperidine-3-carboxylic acid {5′-chloro-6-[(tetrahydro-pyran-2-ylmethyl)-amino]-[2,4′]bipyridinyl-2′-yl}-amide] |
| 5 nM | CC[C@H]1CC[C@H](C(=O)Nc2cc(-c3ccc(F)c(NCC4CCOCC4)n3)c(Cl)cn2)CN1 (single isomer, unassigned) [Example 257] |
| 1 nM | C[C@@H]1CC[C@@H](C(=O)Nc2cc(-c3cccc(NCC4CCOCC4)n3)c(Cl)cn2)CN1 (single isomer, unassigned) [Example 146] |
| 2 nM | C[C@@H]1CC[C@@H](C(=O)Nc2cc(-c3cccc(NC[C@H]4CCOC(C)(C)C4)n3)ccn2)CN1 (mixture of isomers) [Example 228, (3R,6R)-/(3S,6S)-6-Methyl-piperidine-3-carboxylic acid {6-[((S)-2,2-dimethyl-tetrahydro-pyran-4-ylmethyl)-amino]-[2,4′]bipyridinyl-2′-yl}-amide] |
| < 8 nM | CS(=O)(=O)N1CCC[C@H](C(=O)Nc2cc(-c3nc(NCC4CCOCC4)ccc3Cl)c(Cl)cn2)C1 [Example 108, (S)-1-Methanesulfonyl-piperidine-3-carboxylic acid {3,5′-dichloro-6-[(tetrahydro-pyran-4-ylmethyl)-amino]-[2,4′]bipyridinyl-2′-yl}-amide] |
| 11 nM | O=C(Nc1cc(-c2cccc(NCC3CCOCC3)n2)c(Cl)cn1)[C@@H]1CC[C@H](C(F)(F)F)NC1 (racemic) [Example 160, (3R,6R)-/(3S,6S)-6-Trifluoromethyl-piperidine-3-carboxylic acid {5′-chloro-6-[(tetrahydro-pyran-4-ylmethyl)-amino]-[2,4′]bipyridinyl-2′-yl}-amide] |
| < 8 nM | CCS(=O)(=O)N[C@@H]1CC[C@H](C(=O)Nc2cc(-c3nc(NCC4CCOCC4)ccc3Cl)c(Cl)cn2)C1 [Example 113, (1S,3R)-3-Ethanesulfonylamino-cyclopentanecarboxylic acid {3,5′-dichloro-6-[(tetrahydro-pyran-4-ylmethyl)-amino]-[2,4′]bipyridinyl-2′-yl}-amide] |
| < 8 nM | O=C(Nc1cc(-c2cccc(NC[C@@H]3CCCOC3)n2)c(Cl)cn1)[C@@H]1CCCNC1 (single isomer, unassigned) [Example 79] |
| 1 nM | C[C@@H]1CC(CNc2cccc(-c3cc(NC(=O)[C@@H]4CCNC4)ncc3Cl)n2)C[C@H](C)O1 (stereo partly drawn) [Example 170, (R)-Pyrrolidine-3-carboxylic acid {5′-chloro-6-[((2R,6S)-2,6-dimethyl-tetrahydro-pyran-4-ylmethyl)-amino]-[2,4′]bipyridinyl-2′-yl}-amide] |
| < 8 nM | O=C(Nc1cc(-c2cccc(NCC3CCCOC3)n2)c(Cl)cn1)[C@@H]1CCCNC1 (stereo partly drawn) [Example 18, (R)-Piperidine-3-carboxylic acid {5′-chloro-6-[(tetrahydro-pyran-3-ylmethyl)-amino]-[2,4′]bipyridinyl-2′-yl}-amide] |

| IC50 | SMILES |
| --- | --- |
| 1 nM | CC(C)S(=O)(=O)N1CCC[C@H](C(=O)Nc2cc(-c3nc(NC[C@H]4CCOC(C)(C)C4)ccc3Cl)c(Cl)cn2)C1 (single isomer, unassigned) [Example 173] |
| 1 nM | CO[C@H]1CNC[C@@H]1C(=O)Nc1cc(-c2ccc(F)c(NCC3CCOCC3)n2)c(Cl)cn1 [Example 144, (3S,4R)-4-Methoxy-pyrrolidine-3-carboxylic acid {5′-chloro-5-fluoro-6-[(tetrahydro-pyran-4-ylmethyl)-amino]-[2,4′]bipyridinyl-2′-yl}-amide] |
| < 8 nM | O=C(Nc1cc(-c2nc(NCC3CCOCC3)c(Cl)cc2Cl)c(Cl)cn1)[C@@H]1CCCNC1 [Example 134, (R)-Piperidine-3-carboxylic acid {3,5,5′-trichloro-6-[(tetrahydro-pyran-4-ylmethyl)-amino]-[2,4′]bipyridinyl-2′-yl}-amide] |
| 18 nM | O=C(Nc1cc(-c2nc(NCC3CCOCC3)ccc2Cl)c(Cl)cn1)C1CNCCO1 (centres unmarked) [Example 87, Morpholine-2-carboxylic acid {3,5′-dichloro-6-[(tetrahydro-pyran-4-ylmethyl)-amino]-[2,4′]bipyridinyl-2′-yl}-amide] |
| 3 nM | COC[C@@H]1CC[C@@H](C(=O)Nc2cc(-c3cccc(NCC4CCOCC4)n3)c(Cl)cn2)CN1 (racemic) [Example 221, (3R,6S)-/(3S,6R)-6-Methoxymethyl-piperidine-3-carboxylic acid {5′-chloro-6-[(tetrahydro-pyran-4-ylmethyl)-amino]-[2,4′]bipyridinyl-2′-yl}-amide] |
| 1 nM | CC1(C)COC(CNc2nc(-c3cc(NC(=O)[C@@H]4CCCNC4)ncc3Cl)ccc2F)CO1 (stereo partly drawn) [Example 255, (R)-Piperidine-3-carboxylic acid {5′-chloro-6-[(5,5-dimethyl-[1,4]dioxan-2-ylmethyl)-amino]-5-fluoro-[2,4′]bipyridinyl-2′-yl}-amide] |
| 1 nM | CC1(C)COCC(CNc2nc(-c3cc(NC(=O)[C@@H]4CCCNC4)ncc3Cl)ccc2F)O1 (stereo partly drawn) [Example 254, (R)-Piperidine-3-carboxylic acid {5′-chloro-6-[(6,6-dimethyl-[1,4]dioxan-2-ylmethyl)-amino]-5-fluoro-[2,4′]bipyridinyl-2′-yl}-amide] |
| 7 nM | COC[C@H]1CC[C@H](C(=O)Nc2cc(-c3cccc(NCC4CCOCC4)n3)c(Cl)cn2)CN1 (single isomer, unassigned) [Example 236] |
| 62 nM | CC(C)(C)OC(=O)N1CCC[C@H](C(=O)Nc2cc(-c3cccc(NCc4cccc(F)c4)n3)c(Cl)cn2)C1 [Example 5, (S)-3-[5′-Chloro-6-(3-fluoro-benzylamino)-[2,4′]bipyridinyl-2′-ylcarbamoyl]-piperidine-1-carboxylic acid tert-butyl ester] |
| < 8 nM | O=C(Nc1cc(-c2nc(NCC3CCOCC3)ccc2Cl)c(Cl)cn1)[C@@H]1CCNC1 [Example 88, (R)-Pyrrolidine-3-carboxylic acid {3,5′-dichloro-6-[(tetrahydro-pyran-4-ylmethyl)-amino]-[2,4′]bipyridinyl-2′-yl}-amide] |
| < 8 nM | COC(=O)N[C@H]1CC[C@@H](C(=O)Nc2cc(-c3nc(NCC4CCOCC4)ccc3Cl)c(Cl)cn2)C1 [Example 107, ((lS,3R)-3-{3,5′-Dichloro-6-[(tetrahydro-pyran-4-ylmethyl)-amino]-[2,4′]bipyridinyl-2′-ylcarbamoyl}-cyclopentyl)-carbamic acid methyl ester] |
| 181 nM | O=C(Nc1cc(-c2cccc(N3CCCC3)n2)c(Cl)cn1)[C@@H]1CCCNC1 [Example 44, (R)-Piperidine-3-carboxylic acid (5′-chloro-6-pyrrolidin-1-yl-[2,4′]bipyridinyl-2′-yl)-amide] |
| 1 nM | C[C@@H]1CC[C@@H](C(=O)Nc2cc(-c3cccc(NC[C@H]4CCOC(C)(C)C4)n3)c(Cl)cn2)CN1 (single isomer, unassigned) [Example 244] |
| 76 nM | O=C(Nc1cc(-c2cccc(NC3CCOCC3)n2)c(Cl)cn1)[C@@H]1CCCNC1 [Example 33, (R)-Piperidine-3-carboxylic acid [5′-chloro-6-(tetrahydro-pyran-4-ylamino)-[2,4′]bipyridinyl-2′-yl]-amide] |
| 2 nM | C[C@@H]1CC[C@@H](C(=O)Nc2cc(-c3cccc(NCC4CCOCC4)n3)ccn2)CN1 (racemic) [Example 224, (3R,6R)-/(3S,6S)-6-Methyl-piperidine-3-carboxylic acid {6-[(tetrahydro-pyran-4-ylmethyl)-amino]-[2,4′]bipyridinyl-2′-yl}-amide] |

same assay, conditions: Cdk9_cyclinT1_IC50, generated using one of the two Cdk9/cyclinT1 assays (IMAP or Alpha Screen), not specified per value; ATP 6 uM

| IC50 | SMILES |
| --- | --- |
| 4 nM | CC1(C)CC(CNc2cnc(Cl)c(-c3cc(NC(=O)[C@H]4CNCCO4)ncc3Cl)c2)CCO1 (stereo partly drawn) [Example 315, (R)-Morpholine-2-carboxylic acid {2,5′-dichloro-5-[(2,2-dimethyl-tetrahydro-pyran-4-ylmethyl)-amino]-[3,4′]bipyridinyl-2′-yl}-amide] |
